Earlier results as cited in patent publication US20260374742A1, “METHODS OF PREPARING CARBAMATE DERIVATIVES” (NodThera Limited, priority 2022, published 2026).

Test system: NLRP3 inflammasome
Details: for inhibition of NLRP3 activation (in words): literature report

Compound | inhibition of NLRP3 activation (in words) | concentrations at which NLRP3 activation is inhibited (in words) (literature, concentrations unlikely attainable in vivo)
NC[C@@H]1O[C@H](c2ccccc2)Cc2c1ccc(O)c2O [A-68930] | impair NLRP3 activation | –
C[S+]([O-])CCCCN=C=S (stereo not shown) [sulforaphane] | suppress NLRP3 activation | –
Cc1ccc(S(=O)(=O)/C=C/C#N)cc1 [Bay 11-7082] | impair NLRP3 activation | –
C=C1C(=O)O[C@H]2[C@H]1CC/C(C)=C/CC[C@@]1(C)O[C@@H]21 [parthenolide] | impair NLRP3 activation | –
CNCCC(Oc1ccc(C(F)(F)F)cc1)c1ccccc1 (stereo not shown) [fluoxetine] | impair NLRP3 activation | –
O=[N+]([O-])C=Cc1ccc2c(c1)OCO2 [3,4-methylenedioxy-β-nitrostyrene] | impair NLRP3 activation | –
salvianolic acid | suppress NLRP3 activation | –
OC(CNCC(O)C1CCc2cc(F)ccc2O1)C1CCc2cc(F)ccc2O1 (stereo not shown) [nebivolol] | impair NLRP3 activation | –
CC(C)(O)c1coc(S(=O)(=O)NC(=O)Nc2c3c(cc4c2CCC4)CCC3)c1 [CP-456,773] | specific inhibitor of NLRP3 activation | –
O=c1c(O)c(-c2ccc(O)c(O)c2)oc2cc(O)cc(O)c12 [quercetin] | suppress NLRP3 activation | –
COc1ccc(Cl)cc1C(=O)NCCc1ccc(S(=O)(=O)NC(=O)NC2CCCCC2)cc1 [Glyburide] | specific inhibitor of NLRP3 activation | micromolar concentrations
OC[C@H]1O[C@@H](c2ccc(Cl)c(Cc3ccc(O[C@H]4CCOC4)cc3)c2)[C@H](O)[C@@H](O)[C@@H]1O [epigliflozin] | impair NLRP3 activation | –
